In patent publication US20180282819A1, “Targeting the Histone Pathway to Detect and Overcome Anthracyclin Resistance” (ONTARIO INSTITUTE FOR CANCER RESEARCH (OICR), priority 2015, published 2018):

Assays:
Assay type in all cases: cell-based, human
ZR-75-1 10 nM-R = assay: Apoptosis, Annexin V flow cytometry; conditions: 72 h
Protocol: (§1) For cell cycle, cells were synchronized by the double-thymidine block (Whitfield et al. 2000) and incubated with DMSO or epirubicin doses established for each cell line: 25 nM for MDA-MB-231, 30 nM for MCF7, 15 nM for SKBR3, 10 nM for ZR-75-1. Cells were collected at 48 h, fixed with 80% ethanol and incubated with 2 mg/ml RNase A and 0.1 mg/ml propidium iodide (both from Sigma, Oakville, Canada) prior to analysis. For apoptosis experiments, cells were treated with DMSO or epirubicin at concentrations described above, and collected at 72 h for staining with Annexin V apoptosis-detection eFluor450 (eBioscience, San Diego, USA). Data were collected by FACSCanto II and FACSDiva (BD Biosciences, Mississauga, Canada) and analyzed by FlowJo (Treestar, Ashland, USA).
(§2) To assess the effects of epirubicin on apoptosis, apoptotic cells were scored by flow cytometry after 72 h of exposure to epirubicin. The apoptotic index was consistently lower for resistant cells compared to native controls (Table 1). In particular, MDA-MB-231 and SKBR3 resistant cells required a substantially higher concentration of epirubicin (1000 nM) to induce apoptosis; even at this concentration of epirubicin, the apoptotic index was still nearly 50% lower compared to the native cells (Table 1).

MCF7 Native [1] = assay: Apoptosis, Annexin V flow cytometry; conditions: 72 h
Protocol: as §1, §2

MDA-MB-231 Native [2] = assay: Apoptosis, Annexin V flow cytometry; conditions: 72 h
Protocol: as §1, §2

MCF7 30 nM-R = assay: Apoptosis, Annexin V flow cytometry; conditions: 72 h
Protocol: as §1, §2

SKBR3 Native [3] = assay: Apoptosis, Annexin V flow cytometry; conditions: 72 h
Protocol: as §1, §2

MDA-MB-231 25 nM-R = assay: Apoptosis, Annexin V flow cytometry; conditions: 72 h
Protocol: as §1, §2

SKBR3 15 nM-R = assay: Apoptosis, Annexin V flow cytometry; conditions: 72 h
Protocol: as §1, §2

ZR-75-1 Native [4] = assay: Apoptosis, Annexin V flow cytometry; conditions: 72 h
Protocol: as §1, §2

MCF7 30 nM-Resistant = assay: Proliferation, cell-doubling time; conditions: +30 nM epirubicin
Protocol: (§3) Cells were cultured in the presence or absence of epirubicin for up to 96 h (see Flow Cytometry for epirubicin concentrations). Cells were collected at 24, 48, 72 and 96 hours and counted by ViCell (Beckman Coulter, Mississauga, Canada). Data were analyzed in GraphPad Prism5 software.
(§4) To determine cell-doubling time, the investigators cultured cells with or without epirubicin for up to 96 h. In the absence of epirubicin, the native MDA-MB-231 and MCF7 cell populations doubled every 25 h and 29 h, respectively (Table 2), whereas native SKBR3 and ZR-75-1 cells grew more slowly, doubling every 45 h and 50 h, respectively. In the presence of epirubicin, doubling time increased 2.8-fold for the MDA-MB-231 (p=0.0371), 2.5-fold for MCF7 (ns), 1.3-fold for SKBR3 (p=0.0494) and 1.9-fold for ZR-75-1 (p=0.0258) for native cells. In contrast to the native cell lines, there were no marked changes in the doubling time of the resistant cells, regardless of whether epirubicin was added (Table 2).

ZR-75-1 10 nM-Resistant = assay: Proliferation, cell-doubling time; conditions: +10 nM epirubicin
Protocol: as §3, §4

SKBR3 15 nM-Resistant = assay: Proliferation, cell-doubling time; conditions: +15 nM epirubicin
Protocol: as §3, §4

[5] = tested on: MDA-MB-231 25 nM-Resistant; assay: Proliferation, cell-doubling time; conditions: +25 nM epirubicin
Protocol: as §3, §4

MCF7 Native [6] = assay: Proliferation, cell-doubling time
Protocol: as §3, §4

MDA-MB-231 Native [7] = assay: Proliferation, cell-doubling time
Protocol: as §3, §4

SKBR3 Native [8] = assay: Proliferation, cell-doubling time
Protocol: as §3, §4

ZR-75-1 Native [9] = assay: Proliferation, cell-doubling time
Protocol: as §3, §4

MCF7 native cells = assay: Cell cycle, PI flow cytometry after double-thymidine block; conditions: 100 nM epirubicin, 48 h
Protocol: (§5) (A-D) Cells were synchronized by a double-thymidine block and treated with DMSO or epirubicin at selection doses established for each resistant cell line: 25 nM epirubicin to MDA-MB-231, 30 nM epirubicin to MCF7, 15 nM epirubicin to SKBR3 and […]. Epirubicin concentration was increased to 100 nM for MCF7 and SKBR3 cells since G2/M block was not observed at the lower doses of epirubicin. Cells were collected at 48 h, stained by PI and analyzed by flow cytometry. Debris was gated out.
as §1
(§6) Cells were synchronized prior to exposure to DMSO or epirubicin. […] Therefore, overcoming a G2/M block may be part of the process leading to epirubicin resistance.

ZR-75-1 native cells = assay: as above; conditions: 10 nM epirubicin, 48 h
Protocol: as §5, §1, §6

MDA-MB-231 native cells = assay: as above; conditions: 25 nM epirubicin, 48 h
Protocol: as §5, §1, §6

SKBR3 native cells = assay: as above; conditions: 100 nM epirubicin, 48 h
Protocol: as §5, §1, §6

[10] = tested on: SKBR3 epirubicin-resistant cells; assay: as above; conditions: 100 nM epirubicin, 48 h
Protocol: as §5, §1, §6

[11] = tested on: MCF7 epirubicin-resistant cells; assay: as above; conditions: 100 nM epirubicin, 48 h
Protocol: as §5, §1, §6

ZR-75-1 resistant cells = assay: as above; conditions: 10 nM epirubicin, 48 h
Protocol: as §5, §1, §6

[12] = tested on: MDA-MB-231 resistant cells; assay: as above; conditions: 25 nM epirubicin, 48 h
Protocol: as §5, §1, §6

COc1cccc2c1C(=O)c1c(O)c3c(c(O)c1C2=O)C[C@@](O)(C(=O)CO)C[C@@H]3O[C@H]1C[C@H](N)[C@@H](O)[C@H](C)O1 [epirubicin]
Percentages of apoptotic cells (ZR-75-1 10 nM-R; 1 nM epirubicin): 28%
Percentages of apoptotic cells (ZR-75-1 10 nM-R; 10 nM epirubicin): 29%
Percentages of apoptotic cells (ZR-75-1 10 nM-R; 1000 nM epirubicin): 62%
Percentages of apoptotic cells (MCF7 Native [1]; 1 nM epirubicin): 29%
Percentages of apoptotic cells (MCF7 Native [1]; 30 nM epirubicin): 49%
Percentages of apoptotic cells (MCF7 Native [1]; 1000 nM epirubicin): 77%
Percentages of apoptotic cells (MDA-MB-231 Native [2]; 1 nM epirubicin): 17%
Percentages of apoptotic cells (MDA-MB-231 Native [2]; 25 nM epirubicin): 41%
Percentages of apoptotic cells (MDA-MB-231 Native [2]; 1000 nM epirubicin): 94%
Percentages of apoptotic cells (MCF7 30 nM-R; 1 nM epirubicin): 24%
Percentages of apoptotic cells (MCF7 30 nM-R; 30 nM epirubicin): 23%
Percentages of apoptotic cells (MCF7 30 nM-R; 1000 nM epirubicin): 78%
Percentages of apoptotic cells (SKBR3 Native [3]; 1 nM epirubicin): 26%
Percentages of apoptotic cells (SKBR3 Native [3]; 15 nM epirubicin): 24%
Percentages of apoptotic cells (SKBR3 Native [3]; 1000 nM epirubicin): 59%
Percentages of apoptotic cells (MDA-MB-231 25 nM-R; 1 nM epirubicin): 10%
Percentages of apoptotic cells (MDA-MB-231 25 nM-R; 25 nM epirubicin): 8%
Percentages of apoptotic cells (MDA-MB-231 25 nM-R; 1000 nM epirubicin): 50%
Percentages of apoptotic cells (SKBR3 15 nM-R; 1 nM epirubicin): 17%
Percentages of apoptotic cells (SKBR3 15 nM-R; 15 nM epirubicin): 17%
Percentages of apoptotic cells (SKBR3 15 nM-R; 1000 nM epirubicin): 34%
Percentages of apoptotic cells (ZR-75-1 Native [4]; 1 nM epirubicin): 44%
Percentages of apoptotic cells (ZR-75-1 Native [4]; 10 nM epirubicin): 47%
Percentages of apoptotic cells (ZR-75-1 Native [4]; 1000 nM epirubicin): 71%
Doubling times (MCF7 30 nM-Resistant): 37 h
Doubling times (ZR-75-1 10 nM-Resistant): 67 h
Doubling times (SKBR3 15 nM-Resistant): 66 h
Doubling times [5]: 43 h
Doubling times (MCF7 Native [6]; MCF7 Native, +30 nM epirubicin): 74 h
increase of doubling time in the presence of epirubicin (MCF7 Native [6]; MCF7 native cells, ns): 2.5 fold
Doubling times (MDA-MB-231 Native [7]; MDA-MB-231 Native, +25 nM epirubicin): 70 h
increase of doubling time in the presence of epirubicin (MDA-MB-231 Native [7]; MDA-MB-231 native cells, p=0.0371): 2.8 fold
Doubling times (SKBR3 Native [8]; SKBR3 Native, +15 nM epirubicin): 57 h
increase of doubling time in the presence of epirubicin (SKBR3 Native [8]; SKBR3 native cells, p=0.0494): 1.3 fold
Doubling times (ZR-75-1 Native [9]; ZR-75-1 Native, +10 nM epirubicin): 95 h
increase of doubling time in the presence of epirubicin (ZR-75-1 Native [9]; ZR-75-1 native cells, p=0.0258): 1.9 fold
effect on cell cycle (MCF7 native cells): arrested in G2/M phase
effect on cell cycle (ZR-75-1 native cells): arrested in G2/M phase
effect on cell cycle (MDA-MB-231 native cells): arrested in G2/M phase
effect on cell cycle (SKBR3 native cells): arrested in G2/M phase
effect on cell cycle [10]: minimal effect
effect on cell cycle [11]: minimal effect
effect on cell cycle (ZR-75-1 resistant cells): progressed through
effect on cell cycle [12]: progressed through
